Test system: perception of sweet taste of High Fructose Corn Syrup (HFCS)
Test: 2AFC sip and spit sensory test, sweet taste of HFCS in Lemon Lime beverage
Assay type: in vivo, humans
Conditions: Lemon Lime pH 3.1
Method: The effect of the test compounds and combinations of test compounds on the perception of the sweet taste of a flavored beverage (referred to as Lemon Lime henceforth) of sweetener in humans was evaluated using a two-alternative forced choice “sip and spit” method (2AFC). The Lemon Lime solutions were prepared by adding sucrose equivalent (SE) quantities of high fructose corn syrup (HFCS) (by weight), to water to achieve the desired concentration. The lemon lime pH is 3.1. Compounds were first prepared as a 500-fold concentrated stock solution in 100% ethanol. These concentrated stocks were then added to the aqueous sweetener solutions to result in a final ethanol concentration of 0.2%. The control (positive and negative) samples were also normalized to 0.2% ethanol. This level of ethanol was not seen to contribute any perceived sweetness. The 2AFC test used for compound evaluation was a double blinded and randomized test where taste panelists (n≥15) evaluate a pair of sweetener solutions at a time—one sample contains aqueous sweetener solution plus compound (i.e. test) while the other contains aqueous sweetener solution at higher concentration without compound (i.e. positive control). Each test sample was compared against a positive control. For example, if the test sample contained 1× sweetener concentration with compound (e.g. 5brix HFCS with compound), the positive control sample contained a 1.1× sweetener concentration (e.g. 5.5brix HFCS without compound). In this manner, compounds were not assessed simply for an increase in perceived sweetness, but a significant increase in perceived sweetness above the positive control. […] Data were analyzed using binomial probabilities. Approximate levels of sweetness enhancement in column 5 of Table 1 were calculated as follows: Approximate levels of sweetness enhancement=Sweetener concentration of positive control surpassed by the test sample, divided by sweetener concentration for compound-containing sample (e.g. 1.5×=7.5brix HIFCS/5brix HIFCS).

COc1cc(C2CC(=O)Oc3cc(C)cc(O)c32)ccc1O (racemic) [Compound 1, 5-hydroxy-4-(4-hydroxy-3-methoxyphenyl)-7-methylchroman-2-one]
Fold increase in perceived sweetness (25 ppm compound, 10 brix HFCS / 7.14 brix HFCS): >1.4× | Compund concentration with positive 2AFC results (test sample 7.14 brix HFCS vs positive control 10 brix HFCS, panelists n≥15): 25 ppm | Sweetener Concentration of positive control surpassed by test sample (test sample 7.14 brix HFCS with 25 ppm compound): 10 brix HFCS

From patent US20210282443A1, “COMPOUNDS, COMPOSITIONS, AND METHODS FOR MODULATING SWEET TASTE” (Chromocell Corporation, priority 2016, published 2021)
